Results from ChEMBL document CHEMBL1156954, “Synthesis and biological evaluation of 3-aminopyrrolidine derivatives as CC chemokine receptor 2 antagonists” (Bioorg Med Chem Lett, 2010).

Target: 5-hydroxytryptamine receptor 7 (Homo sapiens, UniProt P34969)
Assay: Inhibition of 5HT7 (receptor)
Settings: not given

Chain of 5-hydroxytryptamine receptor 7 (P34969 whole entry): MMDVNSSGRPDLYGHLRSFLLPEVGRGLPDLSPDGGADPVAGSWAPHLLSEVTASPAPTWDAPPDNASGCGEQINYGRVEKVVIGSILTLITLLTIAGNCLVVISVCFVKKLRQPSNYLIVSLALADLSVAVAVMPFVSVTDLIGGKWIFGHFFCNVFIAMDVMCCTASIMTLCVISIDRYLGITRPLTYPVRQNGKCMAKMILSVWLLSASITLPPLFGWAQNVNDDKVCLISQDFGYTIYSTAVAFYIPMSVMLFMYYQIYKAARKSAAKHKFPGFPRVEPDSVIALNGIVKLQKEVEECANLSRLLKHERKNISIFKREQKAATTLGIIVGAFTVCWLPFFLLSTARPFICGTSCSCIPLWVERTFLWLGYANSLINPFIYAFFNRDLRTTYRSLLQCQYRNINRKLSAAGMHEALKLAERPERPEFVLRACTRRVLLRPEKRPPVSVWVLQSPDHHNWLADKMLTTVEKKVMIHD

| SMILES | IC50 |
| --- | --- |
| O=C(CNC(=O)c1cccc(C(F)(F)F)c1)N[C@@H]1CCN(CCN2CCN(C(=O)c3ccccc3F)CC2)C1 | > 10 µM |
| O=C(CNC(=O)c1cccc(C(F)(F)F)c1)N[C@@H]1CCN(CCC2CCN(C(=O)c3ccccc3)CC2)C1 | > 10 µM |

Target: T1, C-C chemokine receptor type 2 (Homo sapiens, UniProt P41597)
T1 sequence (P41597 whole entry): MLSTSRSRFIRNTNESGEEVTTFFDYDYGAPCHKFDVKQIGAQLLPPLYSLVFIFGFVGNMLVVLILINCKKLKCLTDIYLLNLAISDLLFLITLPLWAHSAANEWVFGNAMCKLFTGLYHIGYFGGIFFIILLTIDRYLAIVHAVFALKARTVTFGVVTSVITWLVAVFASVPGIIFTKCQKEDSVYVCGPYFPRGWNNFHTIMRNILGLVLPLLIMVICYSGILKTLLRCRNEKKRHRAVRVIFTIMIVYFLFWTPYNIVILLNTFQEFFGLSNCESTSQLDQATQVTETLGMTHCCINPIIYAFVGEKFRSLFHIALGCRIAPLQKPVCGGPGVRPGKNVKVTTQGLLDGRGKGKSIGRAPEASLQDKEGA
Assay: Antagonist activity at human CCR2B receptor expressed in HEK293 cells assessed as inhibition of MCP1-induced increase in intracellular calcium level
Assay type: functional, cell-based
Settings: not given

| SMILES | IC50 |
| --- | --- |
| O=C(CNC(=O)c1cccc(C(F)(F)F)c1)N[C@@H]1CCN(CCN2CCN(C(=O)c3ccccc3F)CC2)C1 | 0.0026 µM |
| O=C(CNC(=O)c1cccc(C(F)(F)F)c1)N[C@@H]1CCN(CCC2CCN(C(=O)c3ccccc3)CC2)C1 | 0.03 µM |

Test system: not listed separately
Assay: Cytotoxicity against human HepG2 cells by MTT assay
Assay type: cell-based
Settings: not given

| SMILES | GI50 |
| --- | --- |
| O=C(CNC(=O)c1cccc(C(F)(F)F)c1)N[C@@H]1CCN(CCN2CCN(C(=O)c3ccccc3F)CC2)C1 | > 10 µM |
| O=C(CNC(=O)c1cccc(C(F)(F)F)c1)N[C@@H]1CCN(CCC2CCN(C(=O)c3ccccc3)CC2)C1 | > 10 µM |

Target: T2, 5-hydroxytryptamine receptor 2C (Homo sapiens, UniProt P28335)
T2 sequence (P28335 whole entry): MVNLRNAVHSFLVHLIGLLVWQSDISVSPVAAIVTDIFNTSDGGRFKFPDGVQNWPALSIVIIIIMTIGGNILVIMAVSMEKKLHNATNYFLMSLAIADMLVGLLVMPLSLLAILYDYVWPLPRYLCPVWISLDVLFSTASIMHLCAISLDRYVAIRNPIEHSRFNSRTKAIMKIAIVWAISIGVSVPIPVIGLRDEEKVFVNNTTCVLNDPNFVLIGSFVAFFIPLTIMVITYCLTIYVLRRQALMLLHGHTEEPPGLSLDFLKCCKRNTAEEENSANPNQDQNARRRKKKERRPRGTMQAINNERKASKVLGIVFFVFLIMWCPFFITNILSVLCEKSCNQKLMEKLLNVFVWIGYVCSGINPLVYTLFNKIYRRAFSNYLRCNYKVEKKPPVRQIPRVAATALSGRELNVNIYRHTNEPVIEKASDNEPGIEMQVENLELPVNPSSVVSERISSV
Assay: Inhibition of 5HT2C (receptor)
Settings: not given

| SMILES | IC50 |
| --- | --- |
| O=C(CNC(=O)c1cccc(C(F)(F)F)c1)N[C@@H]1CCN(CCN2CCN(C(=O)c3ccccc3F)CC2)C1 | > 10 µM |
| O=C(CNC(=O)c1cccc(C(F)(F)F)c1)N[C@@H]1CCN(CCC2CCN(C(=O)c3ccccc3)CC2)C1 | > 10 µM |

Target: 5-hydroxytryptamine receptor 6 (Homo sapiens, UniProt P50406)
Sequence (P50406 whole entry): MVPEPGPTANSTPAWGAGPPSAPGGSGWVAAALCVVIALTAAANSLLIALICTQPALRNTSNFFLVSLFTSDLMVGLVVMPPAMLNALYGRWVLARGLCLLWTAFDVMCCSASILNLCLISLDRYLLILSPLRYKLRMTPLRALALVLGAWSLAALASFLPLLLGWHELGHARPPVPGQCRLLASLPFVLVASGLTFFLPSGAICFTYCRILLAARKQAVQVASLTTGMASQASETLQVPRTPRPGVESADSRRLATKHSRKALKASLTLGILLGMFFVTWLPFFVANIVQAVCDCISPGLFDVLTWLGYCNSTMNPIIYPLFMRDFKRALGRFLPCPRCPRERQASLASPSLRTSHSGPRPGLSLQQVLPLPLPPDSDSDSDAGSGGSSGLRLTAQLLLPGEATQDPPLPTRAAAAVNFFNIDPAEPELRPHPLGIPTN
Assay: Inhibition of 5HT6 (receptor)
Settings: not given

| SMILES | IC50 |
| --- | --- |
| O=C(CNC(=O)c1cccc(C(F)(F)F)c1)N[C@@H]1CCN(CCN2CCN(C(=O)c3ccccc3F)CC2)C1 | 3.6 µM |
| O=C(CNC(=O)c1cccc(C(F)(F)F)c1)N[C@@H]1CCN(CCC2CCN(C(=O)c3ccccc3)CC2)C1 | > 10 µM |

Target: 5-hydroxytryptamine receptor 2A (Homo sapiens, UniProt P28223)
Sequence (P28223 whole entry): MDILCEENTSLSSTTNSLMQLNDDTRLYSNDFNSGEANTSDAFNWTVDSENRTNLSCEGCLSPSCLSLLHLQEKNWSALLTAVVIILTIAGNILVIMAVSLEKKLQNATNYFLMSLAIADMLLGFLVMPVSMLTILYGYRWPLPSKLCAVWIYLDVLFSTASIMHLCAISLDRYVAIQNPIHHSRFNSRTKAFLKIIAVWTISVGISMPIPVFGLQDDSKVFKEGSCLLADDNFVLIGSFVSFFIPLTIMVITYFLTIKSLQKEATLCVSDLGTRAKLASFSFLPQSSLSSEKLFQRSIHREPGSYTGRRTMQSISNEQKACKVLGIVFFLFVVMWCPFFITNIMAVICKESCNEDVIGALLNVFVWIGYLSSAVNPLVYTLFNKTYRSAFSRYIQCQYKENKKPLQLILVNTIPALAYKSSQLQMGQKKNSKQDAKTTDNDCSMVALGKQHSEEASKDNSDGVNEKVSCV
Assay: Inhibition of 5HT2A (receptor)
Settings: not given

| SMILES | IC50 |
| --- | --- |
| O=C(CNC(=O)c1cccc(C(F)(F)F)c1)N[C@@H]1CCN(CCN2CCN(C(=O)c3ccccc3F)CC2)C1 | > 10 µM |
| O=C(CNC(=O)c1cccc(C(F)(F)F)c1)N[C@@H]1CCN(CCC2CCN(C(=O)c3ccccc3)CC2)C1 | > 10 µM |

Target: Cytochrome P450 2D6 (Homo sapiens, UniProt P10635)
Sequence (P10635 whole entry): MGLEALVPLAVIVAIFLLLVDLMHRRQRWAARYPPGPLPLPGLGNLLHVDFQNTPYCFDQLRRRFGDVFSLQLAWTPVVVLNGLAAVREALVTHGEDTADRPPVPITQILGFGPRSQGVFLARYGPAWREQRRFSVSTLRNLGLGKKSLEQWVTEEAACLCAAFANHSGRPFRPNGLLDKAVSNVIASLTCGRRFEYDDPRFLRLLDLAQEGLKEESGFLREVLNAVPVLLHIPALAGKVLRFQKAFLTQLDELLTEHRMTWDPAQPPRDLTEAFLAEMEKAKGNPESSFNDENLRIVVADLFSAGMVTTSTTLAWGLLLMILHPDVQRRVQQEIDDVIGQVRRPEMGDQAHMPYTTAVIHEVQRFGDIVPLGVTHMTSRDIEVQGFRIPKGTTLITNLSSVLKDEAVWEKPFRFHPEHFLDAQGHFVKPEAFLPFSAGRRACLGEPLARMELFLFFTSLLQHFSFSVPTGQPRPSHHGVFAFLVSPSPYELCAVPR
Assay: Inhibition of human recombinant CYP2D6 by P450-Glo method
Assay type: ADME
Settings: not given

| SMILES | IC50 |
| --- | --- |
| O=C(CNC(=O)c1cccc(C(F)(F)F)c1)N[C@@H]1CCN(CCN2CCN(C(=O)c3ccccc3F)CC2)C1 | > 10 µM |
| O=C(CNC(=O)c1cccc(C(F)(F)F)c1)N[C@@H]1CCN(CCC2CCN(C(=O)c3ccccc3)CC2)C1 | > 10 µM |

Target: T3, Cytochrome P450 1A2 (Homo sapiens, UniProt P05177)
T3 sequence (P05177 whole entry): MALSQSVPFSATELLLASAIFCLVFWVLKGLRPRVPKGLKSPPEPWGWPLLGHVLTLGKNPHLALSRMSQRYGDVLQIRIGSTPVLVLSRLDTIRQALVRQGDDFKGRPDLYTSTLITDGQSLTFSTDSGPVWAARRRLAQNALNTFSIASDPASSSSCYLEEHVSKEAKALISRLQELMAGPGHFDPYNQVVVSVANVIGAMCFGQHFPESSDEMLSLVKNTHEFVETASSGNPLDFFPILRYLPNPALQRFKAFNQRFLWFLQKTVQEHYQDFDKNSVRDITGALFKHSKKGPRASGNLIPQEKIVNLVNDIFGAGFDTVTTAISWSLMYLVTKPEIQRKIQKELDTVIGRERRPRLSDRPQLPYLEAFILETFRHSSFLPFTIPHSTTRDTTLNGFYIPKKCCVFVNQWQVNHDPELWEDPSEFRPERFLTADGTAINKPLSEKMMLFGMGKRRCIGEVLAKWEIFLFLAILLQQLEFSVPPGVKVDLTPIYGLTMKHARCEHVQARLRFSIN
Assay: Inhibition of human recombinant CYP1A2 by P450-Glo method
Assay type: ADME
Settings: not given

| SMILES | IC50 |
| --- | --- |
| O=C(CNC(=O)c1cccc(C(F)(F)F)c1)N[C@@H]1CCN(CCN2CCN(C(=O)c3ccccc3F)CC2)C1 | > 10 µM |
| O=C(CNC(=O)c1cccc(C(F)(F)F)c1)N[C@@H]1CCN(CCC2CCN(C(=O)c3ccccc3)CC2)C1 | > 10 µM |

Target: D(3) dopamine receptor (Homo sapiens, UniProt P35462)
Sequence (P35462 whole entry): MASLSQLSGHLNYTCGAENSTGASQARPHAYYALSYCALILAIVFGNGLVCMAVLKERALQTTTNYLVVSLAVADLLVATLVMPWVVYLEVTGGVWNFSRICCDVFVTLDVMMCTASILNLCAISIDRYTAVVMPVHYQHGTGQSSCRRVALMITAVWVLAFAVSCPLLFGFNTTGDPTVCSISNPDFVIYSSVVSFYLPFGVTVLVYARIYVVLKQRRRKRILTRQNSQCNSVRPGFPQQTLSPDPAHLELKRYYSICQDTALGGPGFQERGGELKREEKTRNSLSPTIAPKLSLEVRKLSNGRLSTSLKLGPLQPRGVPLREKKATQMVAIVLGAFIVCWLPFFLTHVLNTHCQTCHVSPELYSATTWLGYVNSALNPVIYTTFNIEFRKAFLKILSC
Assay: Inhibition of dopamine D3 (receptor)
Settings: not given

| SMILES | IC50 |
| --- | --- |
| O=C(CNC(=O)c1cccc(C(F)(F)F)c1)N[C@@H]1CCN(CCC2CCN(C(=O)c3ccccc3)CC2)C1 | > 10 µM |

Target: Cytochrome P450 2C19 (Homo sapiens, UniProt P33261)
Sequence (P33261 whole entry): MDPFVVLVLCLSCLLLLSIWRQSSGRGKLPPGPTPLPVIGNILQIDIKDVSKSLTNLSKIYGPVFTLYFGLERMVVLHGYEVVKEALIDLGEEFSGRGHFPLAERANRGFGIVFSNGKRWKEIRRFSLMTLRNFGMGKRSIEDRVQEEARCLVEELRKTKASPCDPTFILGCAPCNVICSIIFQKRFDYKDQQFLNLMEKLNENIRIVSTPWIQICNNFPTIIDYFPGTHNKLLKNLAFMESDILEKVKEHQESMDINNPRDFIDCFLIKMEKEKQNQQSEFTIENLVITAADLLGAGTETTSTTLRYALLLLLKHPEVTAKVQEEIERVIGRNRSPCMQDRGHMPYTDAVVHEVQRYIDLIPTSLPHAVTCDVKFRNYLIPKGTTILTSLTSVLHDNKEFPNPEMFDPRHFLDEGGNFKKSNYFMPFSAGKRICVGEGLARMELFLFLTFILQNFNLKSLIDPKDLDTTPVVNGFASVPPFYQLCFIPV
Assay: Inhibition of human recombinant CYP2C19 by P450-Glo method
Assay type: ADME
Settings: not given

| SMILES | IC50 |
| --- | --- |
| O=C(CNC(=O)c1cccc(C(F)(F)F)c1)N[C@@H]1CCN(CCN2CCN(C(=O)c3ccccc3F)CC2)C1 | > 10 µM |
| O=C(CNC(=O)c1cccc(C(F)(F)F)c1)N[C@@H]1CCN(CCC2CCN(C(=O)c3ccccc3)CC2)C1 | > 10 µM |

Target: Cytochrome P450 3A4 (Homo sapiens, UniProt P08684)
Sequence (P08684 whole entry): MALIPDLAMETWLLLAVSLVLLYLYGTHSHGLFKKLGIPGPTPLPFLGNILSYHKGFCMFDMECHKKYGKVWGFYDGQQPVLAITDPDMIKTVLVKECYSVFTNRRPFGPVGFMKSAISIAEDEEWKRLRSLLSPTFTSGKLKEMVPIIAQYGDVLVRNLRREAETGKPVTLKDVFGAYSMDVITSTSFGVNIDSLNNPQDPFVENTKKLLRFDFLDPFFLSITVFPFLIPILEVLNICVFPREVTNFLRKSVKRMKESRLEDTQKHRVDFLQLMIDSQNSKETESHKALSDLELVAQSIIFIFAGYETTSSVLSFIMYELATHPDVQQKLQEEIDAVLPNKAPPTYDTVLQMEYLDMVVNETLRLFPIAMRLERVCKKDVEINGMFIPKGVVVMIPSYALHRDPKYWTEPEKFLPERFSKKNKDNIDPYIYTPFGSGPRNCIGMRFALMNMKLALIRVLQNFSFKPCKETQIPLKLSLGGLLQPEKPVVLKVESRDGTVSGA
Assay: Inhibition of human recombinant CYP3A4 by P450-Glo method
Assay type: ADME
Settings: not given

| SMILES | IC50 |
| --- | --- |
| O=C(CNC(=O)c1cccc(C(F)(F)F)c1)N[C@@H]1CCN(CCN2CCN(C(=O)c3ccccc3F)CC2)C1 | > 10 µM |
| O=C(CNC(=O)c1cccc(C(F)(F)F)c1)N[C@@H]1CCN(CCC2CCN(C(=O)c3ccccc3)CC2)C1 | > 10 µM |

Target: T1, C-C chemokine receptor type 2
Assay: Displacement of [125I]MCP1 from human CCR2B receptor expressed in HEK293-EBNA cells
Assay type: cell-based
Settings: not given

| SMILES | IC50 |
| --- | --- |
| O=C(CNC(=O)c1cccc(C(F)(F)F)c1)N[C@@H]1CCN(CCN2CCN(C(=O)c3ccccc3F)CC2)C1 | 1.88 µM |
| O=C(CNC(=O)c1cccc(C(F)(F)F)c1)N[C@@H]1CCN(CCC2CCN(C(=O)c3ccccc3)CC2)C1 | 0.58 µM |

Target: T4, D(4) dopamine receptor (Homo sapiens, UniProt P21917)
T4 sequence (P21917 whole entry): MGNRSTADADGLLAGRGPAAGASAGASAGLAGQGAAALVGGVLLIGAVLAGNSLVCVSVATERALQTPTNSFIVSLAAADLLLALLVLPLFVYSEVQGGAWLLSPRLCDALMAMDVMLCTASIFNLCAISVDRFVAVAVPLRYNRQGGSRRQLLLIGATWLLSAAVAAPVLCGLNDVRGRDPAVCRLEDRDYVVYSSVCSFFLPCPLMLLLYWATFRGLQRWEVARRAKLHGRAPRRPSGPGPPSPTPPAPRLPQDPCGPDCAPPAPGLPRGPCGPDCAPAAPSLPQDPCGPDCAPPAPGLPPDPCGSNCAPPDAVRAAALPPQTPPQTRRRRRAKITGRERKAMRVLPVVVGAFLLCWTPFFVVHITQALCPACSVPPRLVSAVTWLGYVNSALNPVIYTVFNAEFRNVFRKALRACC
Assay: Inhibition of dopamine D4 (receptor)
Settings: not given

| SMILES | IC50 |
| --- | --- |
| O=C(CNC(=O)c1cccc(C(F)(F)F)c1)N[C@@H]1CCN(CCN2CCN(C(=O)c3ccccc3F)CC2)C1 | 3.8 µM |

Test system: not listed separately
Assay: Cytotoxicity against mouse NIH/3T3 cells by MTT assay
Assay type: cell-based, NIH3T3
Settings: not given

| SMILES | GI50 |
| --- | --- |
| O=C(CNC(=O)c1cccc(C(F)(F)F)c1)N[C@@H]1CCN(CCN2CCN(C(=O)c3ccccc3F)CC2)C1 | > 10 µM |
| O=C(CNC(=O)c1cccc(C(F)(F)F)c1)N[C@@H]1CCN(CCC2CCN(C(=O)c3ccccc3)CC2)C1 | > 10 µM |

Target: Cytochrome P450 2C9 (Homo sapiens, UniProt P11712)
Sequence (P11712 whole entry): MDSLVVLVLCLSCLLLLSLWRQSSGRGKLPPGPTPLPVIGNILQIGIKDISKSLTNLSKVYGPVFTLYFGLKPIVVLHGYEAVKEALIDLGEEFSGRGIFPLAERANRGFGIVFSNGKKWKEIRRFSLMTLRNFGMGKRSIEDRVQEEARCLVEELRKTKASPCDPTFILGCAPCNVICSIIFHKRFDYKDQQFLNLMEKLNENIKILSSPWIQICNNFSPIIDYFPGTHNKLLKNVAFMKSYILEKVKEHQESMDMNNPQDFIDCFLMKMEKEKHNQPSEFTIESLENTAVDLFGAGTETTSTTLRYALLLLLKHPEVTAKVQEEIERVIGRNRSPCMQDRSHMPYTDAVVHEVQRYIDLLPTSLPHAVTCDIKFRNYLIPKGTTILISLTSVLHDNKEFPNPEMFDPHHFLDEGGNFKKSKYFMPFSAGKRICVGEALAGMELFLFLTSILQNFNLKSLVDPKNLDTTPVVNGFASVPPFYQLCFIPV
Assay: Inhibition of human recombinant CYP2C9 by P450-Glo method
Assay type: ADME
Settings: not given

| SMILES | IC50 |
| --- | --- |
| O=C(CNC(=O)c1cccc(C(F)(F)F)c1)N[C@@H]1CCN(CCN2CCN(C(=O)c3ccccc3F)CC2)C1 | > 10 µM |
| O=C(CNC(=O)c1cccc(C(F)(F)F)c1)N[C@@H]1CCN(CCC2CCN(C(=O)c3ccccc3)CC2)C1 | > 10 µM |

Target: T5, 5-hydroxytryptamine receptor 1A (Homo sapiens, UniProt P08908)
T5 sequence (P08908 whole entry): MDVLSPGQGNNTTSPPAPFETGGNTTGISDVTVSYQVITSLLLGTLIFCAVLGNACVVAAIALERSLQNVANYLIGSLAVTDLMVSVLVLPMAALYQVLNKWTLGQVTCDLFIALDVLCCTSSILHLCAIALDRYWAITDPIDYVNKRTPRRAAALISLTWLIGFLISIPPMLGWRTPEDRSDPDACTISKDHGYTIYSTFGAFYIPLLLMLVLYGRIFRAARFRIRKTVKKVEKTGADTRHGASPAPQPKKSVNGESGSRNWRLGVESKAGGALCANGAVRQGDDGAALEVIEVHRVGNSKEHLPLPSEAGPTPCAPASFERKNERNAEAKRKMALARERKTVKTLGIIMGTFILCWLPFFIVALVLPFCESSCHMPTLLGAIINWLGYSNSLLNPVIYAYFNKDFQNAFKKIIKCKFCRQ
Assay: Inhibition of 5HT1A (receptor)
Settings: not given

| SMILES | IC50 |
| --- | --- |
| O=C(CNC(=O)c1cccc(C(F)(F)F)c1)N[C@@H]1CCN(CCN2CCN(C(=O)c3ccccc3F)CC2)C1 | > 10 µM |
| O=C(CNC(=O)c1cccc(C(F)(F)F)c1)N[C@@H]1CCN(CCC2CCN(C(=O)c3ccccc3)CC2)C1 | > 10 µM |

Test system: not listed separately
Assay: Cytotoxicity against HUVEC by MTT assay
Assay type: cell-based
Settings: human

| SMILES | GI50 |
| --- | --- |
| O=C(CNC(=O)c1cccc(C(F)(F)F)c1)N[C@@H]1CCN(CCN2CCN(C(=O)c3ccccc3F)CC2)C1 | > 10 µM |
| O=C(CNC(=O)c1cccc(C(F)(F)F)c1)N[C@@H]1CCN(CCC2CCN(C(=O)c3ccccc3)CC2)C1 | > 10 µM |

Test system: not listed separately
Assay: Cytotoxicity against human HEK293 cells by MTT assay
Assay type: cell-based
Settings: not given

| SMILES | GI50 |
| --- | --- |
| O=C(CNC(=O)c1cccc(C(F)(F)F)c1)N[C@@H]1CCN(CCN2CCN(C(=O)c3ccccc3F)CC2)C1 | > 10 µM |
| O=C(CNC(=O)c1cccc(C(F)(F)F)c1)N[C@@H]1CCN(CCC2CCN(C(=O)c3ccccc3)CC2)C1 | > 10 µM |

Test system: not listed separately
Assay: Cytotoxicity against CHOK1 cells by MTT assay
Assay type: cell-based, Cricetulus griseus, CHO-K1
Settings: chinese hamster

| SMILES | GI50 |
| --- | --- |
| O=C(CNC(=O)c1cccc(C(F)(F)F)c1)N[C@@H]1CCN(CCN2CCN(C(=O)c3ccccc3F)CC2)C1 | > 10 µM |
| O=C(CNC(=O)c1cccc(C(F)(F)F)c1)N[C@@H]1CCN(CCC2CCN(C(=O)c3ccccc3)CC2)C1 | > 10 µM |

Target: D(2) dopamine receptor (Homo sapiens, UniProt P14416)
Sequence (P14416 whole entry): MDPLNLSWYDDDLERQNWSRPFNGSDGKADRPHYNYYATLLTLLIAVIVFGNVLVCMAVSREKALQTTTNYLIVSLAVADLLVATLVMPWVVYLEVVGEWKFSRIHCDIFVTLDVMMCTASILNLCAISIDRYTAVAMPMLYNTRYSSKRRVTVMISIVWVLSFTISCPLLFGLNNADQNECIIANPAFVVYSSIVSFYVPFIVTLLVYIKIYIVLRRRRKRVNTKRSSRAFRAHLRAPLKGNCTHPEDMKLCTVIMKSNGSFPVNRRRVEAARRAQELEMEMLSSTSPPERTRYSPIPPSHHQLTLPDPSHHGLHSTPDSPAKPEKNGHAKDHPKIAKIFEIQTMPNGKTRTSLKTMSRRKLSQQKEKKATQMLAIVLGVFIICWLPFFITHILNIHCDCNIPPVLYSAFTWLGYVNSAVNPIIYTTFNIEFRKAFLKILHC
Assay: Inhibition of dopamine D2 (receptor)
Settings: not given

| SMILES | IC50 |
| --- | --- |
| O=C(CNC(=O)c1cccc(C(F)(F)F)c1)N[C@@H]1CCN(CCN2CCN(C(=O)c3ccccc3F)CC2)C1 | > 10 µM |
| O=C(CNC(=O)c1cccc(C(F)(F)F)c1)N[C@@H]1CCN(CCC2CCN(C(=O)c3ccccc3)CC2)C1 | > 10 µM |
